# Assay results published in ChEMBL document CHEMBL3885881, “DrugMatrix”.
# Species: Rattus norvegicus
# Assay: DrugMatrix - Regimen: Daily Repeat
# Type: toxicity, organism-based, Sprague-Dawley
# Design: regimen Daily Repeat, gender Male, age 6-8 weeks
# Conditions: in vivo, sc, route subcutaneous, […]; for ABSOLUTE BASOPHIL / ABSOLUTE EOSINOPHIL / ABSOLUTE LYMPHOCYTE / ABSOLUTE MONOCYTE / ABSOLUTE SEGMENTED NEUTROPHIL / BASOPHIL / EOSINOPHIL / ERYTHROCYTE COUNT / HEMATOCRIT / HEMOGLOBIN / LEUKOCYTE COUNT / LYMPHOCYTE / MEAN CORPUSCULAR HEMOGLOBIN / MEAN CORPUSCULAR HEMOGLOBIN CONCENTRATION / MEAN CORPUSCULAR VOLUME / MONOCYTE / NEUTROPHIL / NUCLEATED RED BLOOD CELLS / PLATELET COUNT: tissue Blood; for ALANINE AMINOTRANSFERASE / ALBUMIN / ALKALINE PHOSPHATASE / ASPARTATE AMINOTRANSFERASE / BLOOD UREA NITROGEN / CARBON DIOXIDE / CHLORIDE / CHOLESTEROL / CREATINE PHOSPHOKINASE / CREATININE / GLUCOSE / LACTATE DEHYDROGENASE / LIPASE / PHOSPHORUS / POTASSIUM / SODIUM / TOTAL BILIRUBIN / TOTAL PROTEIN / URIC ACID: tissue Plasma
# [1] = 3 mg/kg, 72 h, dose level Low, time 3 day
# [2] = 3 mg/kg, 120 h, dose level Low, time 5 day
# [3] = 1500 mg/kg, 72 h, dose level High, time 3 day
# [4] = 1500 mg/kg, 120 h, dose level High, time 5 day
smiles,measurement,setting,value
Clc1ccc(CO/N=C(\Cn2ccnc2)c2ccc(Cl)cc2Cl)c(Cl)c1 [OXICONAZOLE],ABSOLUTE BASOPHIL,[1],0 CELLS/uL
same,ABSOLUTE EOSINOPHIL,[1],0 CELLS/uL
same,ABSOLUTE LYMPHOCYTE,[1],11885.67 CELLS/uL
same,ABSOLUTE MONOCYTE,[1],211.33 CELLS/uL
same,ABSOLUTE SEGMENTED NEUTROPHIL,[1],736.33 CELLS/uL
same,BASOPHIL,[1],0%
same,EOSINOPHIL,[1],0%
same,ERYTHROCYTE COUNT,[1],5.9 x10E6/uL
same,HEMATOCRIT,[1],37.23%
same,HEMOGLOBIN,[1],14.13 G/DL
same,LEUKOCYTE COUNT,[1],12.83 x10E3/uL
same,LYMPHOCYTE,[1],92.33%
same,MEAN CORPUSCULAR HEMOGLOBIN,[1],24 pg
same,MEAN CORPUSCULAR HEMOGLOBIN CONCENTRATION,[1],38 G/DL
same,MEAN CORPUSCULAR VOLUME,[1],63.17 fL
same,MONOCYTE,[1],1.67%
same,NEUTROPHIL,[1],6%
same,NUCLEATED RED BLOOD CELLS,[1],0 /100WBC
same,PLATELET COUNT,[1],1370 x10E3/uL
same,ALANINE AMINOTRANSFERASE,[1],44 u/L
same,ALBUMIN,[1],4.63 G/DL
same,ALKALINE PHOSPHATASE,[1],333.33 u/L
same,ASPARTATE AMINOTRANSFERASE,[1],101.67 u/L
same,BLOOD UREA NITROGEN,[1],18.33 mg/dL
same,CARBON DIOXIDE,[1],21.33 mmol/L
same,CHLORIDE,[1],96 MEQ/L
same,CHOLESTEROL,[1],92.67 mg/dL
same,CREATINE PHOSPHOKINASE,[1],602 u/L
same,CREATININE,[1],0.2 mg/dL
same,GLUCOSE,[1],137 mg/dL
same,LACTATE DEHYDROGENASE,[1],701 u/L
same,LIPASE,[1],10 u/L
same,PHOSPHORUS,[1],12.9 mg/dL
same,POTASSIUM,[1],6.82 MEQ/L
same,SODIUM,[1],140.17 MEQ/L
same,TOTAL BILIRUBIN,[1],0.17 mg/dL
same,TOTAL PROTEIN,[1],6.4 G/DL
same,URIC ACID,[1],1.77 mg/dL
same,ABSOLUTE BASOPHIL,[2],0 CELLS/uL
same,ABSOLUTE EOSINOPHIL,[2],80 CELLS/uL
same,ABSOLUTE LYMPHOCYTE,[2],13140 CELLS/uL
same,ABSOLUTE MONOCYTE,[2],187.67 CELLS/uL
same,ABSOLUTE SEGMENTED NEUTROPHIL,[2],1059 CELLS/uL
same,BASOPHIL,[2],0%
same,EOSINOPHIL,[2],0.67%
same,ERYTHROCYTE COUNT,[2],5.43 x10E6/uL
same,HEMATOCRIT,[2],34.63%
same,HEMOGLOBIN,[2],13.57 G/DL
same,LEUKOCYTE COUNT,[2],14.47 x10E3/uL
same,LYMPHOCYTE,[2],91%
same,MEAN CORPUSCULAR HEMOGLOBIN,[2],25 pg
same,MEAN CORPUSCULAR HEMOGLOBIN CONCENTRATION,[2],39.17 G/DL
same,MEAN CORPUSCULAR VOLUME,[2],63.83 fL
same,MONOCYTE,[2],1.33%
same,NEUTROPHIL,[2],7%
same,NUCLEATED RED BLOOD CELLS,[2],0 /100WBC
same,PLATELET COUNT,[2],1246.67 x10E3/uL
same,ALANINE AMINOTRANSFERASE,[2],45.67 u/L
same,ALBUMIN,[2],4.03 G/DL
same,ALKALINE PHOSPHATASE,[2],333 u/L
same,ASPARTATE AMINOTRANSFERASE,[2],70.33 u/L
same,BLOOD UREA NITROGEN,[2],14 mg/dL
same,CARBON DIOXIDE,[2],27.33 mmol/L
same,CHLORIDE,[2],101 MEQ/L
same,CHOLESTEROL,[2],71.33 mg/dL
same,CREATINE PHOSPHOKINASE,[2],209.67 u/L
same,CREATININE,[2],0.12 mg/dL
same,GLUCOSE,[2],150 mg/dL
same,LACTATE DEHYDROGENASE,[2],187.33 u/L
same,LIPASE,[2],8.67 u/L
same,PHOSPHORUS,[2],11 mg/dL
same,POTASSIUM,[2],6.62 MEQ/L
same,SODIUM,[2],144.57 MEQ/L
same,TOTAL BILIRUBIN,[2],0.23 mg/dL
same,TOTAL PROTEIN,[2],5.9 G/DL
same,URIC ACID,[2],1.23 mg/dL
same,ABSOLUTE BASOPHIL,[3],0 CELLS/uL
same,ABSOLUTE EOSINOPHIL,[3],0 CELLS/uL
same,ABSOLUTE LYMPHOCYTE,[3],11731.33 CELLS/uL
same,ABSOLUTE MONOCYTE,[3],603.33 CELLS/uL
same,ABSOLUTE SEGMENTED NEUTROPHIL,[3],4732 CELLS/uL
same,BASOPHIL,[3],0%
same,EOSINOPHIL,[3],0%
same,ERYTHROCYTE COUNT,[3],4.99 x10E6/uL
same,HEMATOCRIT,[3],31.07%
same,HEMOGLOBIN,[3],12.4 G/DL
same,LEUKOCYTE COUNT,[3],17.07 x10E3/uL
same,LYMPHOCYTE,[3],69.67%
same,MEAN CORPUSCULAR HEMOGLOBIN,[3],24.97 pg
same,MEAN CORPUSCULAR HEMOGLOBIN CONCENTRATION,[3],39.93 G/DL
same,MEAN CORPUSCULAR VOLUME,[3],62.43 fL
same,MONOCYTE,[3],3.67%
same,NEUTROPHIL,[3],26.67%
same,NUCLEATED RED BLOOD CELLS,[3],0 /100WBC
same,PLATELET COUNT,[3],1249.67 x10E3/uL
same,ALANINE AMINOTRANSFERASE,[3],40.33 u/L
same,ALBUMIN,[3],3.03 G/DL
same,ALKALINE PHOSPHATASE,[3],327 u/L
same,ASPARTATE AMINOTRANSFERASE,[3],65.67 u/L
same,BLOOD UREA NITROGEN,[3],12.33 mg/dL
same,CARBON DIOXIDE,[3],22.33 mmol/L
same,CHLORIDE,[3],98.67 MEQ/L
same,CHOLESTEROL,[3],62.67 mg/dL
same,CREATINE PHOSPHOKINASE,[3],173 u/L
same,CREATININE,[3],0.17 mg/dL
same,GLUCOSE,[3],131 mg/dL
same,LACTATE DEHYDROGENASE,[3],217 u/L
same,LIPASE,[3],9 u/L
same,PHOSPHORUS,[3],12.47 mg/dL
same,POTASSIUM,[3],6.61 MEQ/L
same,SODIUM,[3],143.17 MEQ/L
same,TOTAL BILIRUBIN,[3],0.1 mg/dL
same,TOTAL PROTEIN,[3],6.03 G/DL
same,URIC ACID,[3],1.7 mg/dL
same,ABSOLUTE BASOPHIL,[4],0 CELLS/uL
same,ABSOLUTE EOSINOPHIL,[4],0 CELLS/uL
same,ABSOLUTE LYMPHOCYTE,[4],17693 CELLS/uL
same,ABSOLUTE MONOCYTE,[4],655 CELLS/uL
same,ABSOLUTE SEGMENTED NEUTROPHIL,[4],5318.67 CELLS/uL
same,BASOPHIL,[4],0%
same,EOSINOPHIL,[4],0%
same,ERYTHROCYTE COUNT,[4],5.09 x10E6/uL
same,HEMATOCRIT,[4],30.4%
same,HEMOGLOBIN,[4],12.37 G/DL
same,LEUKOCYTE COUNT,[4],23.67 x10E3/uL
same,LYMPHOCYTE,[4],76.67%
same,MEAN CORPUSCULAR HEMOGLOBIN,[4],24.3 pg
same,MEAN CORPUSCULAR HEMOGLOBIN CONCENTRATION,[4],40.7 G/DL
same,MEAN CORPUSCULAR VOLUME,[4],59.73 fL
same,MONOCYTE,[4],3%
same,NEUTROPHIL,[4],20.33%
same,NUCLEATED RED BLOOD CELLS,[4],0.33 /100WBC
same,PLATELET COUNT,[4],1767.33 x10E3/uL
same,ALANINE AMINOTRANSFERASE,[4],33.33 u/L
same,ALBUMIN,[4],2.7 G/DL
same,ALKALINE PHOSPHATASE,[4],254.33 u/L
same,ASPARTATE AMINOTRANSFERASE,[4],66.33 u/L
same,BLOOD UREA NITROGEN,[4],16.67 mg/dL
same,CARBON DIOXIDE,[4],24.33 mmol/L
same,CHLORIDE,[4],103.33 MEQ/L
same,CHOLESTEROL,[4],55.67 mg/dL
same,CREATINE PHOSPHOKINASE,[4],192.33 u/L
same,CREATININE,[4],0.13 mg/dL
same,GLUCOSE,[4],142.33 mg/dL
same,LACTATE DEHYDROGENASE,[4],225.33 u/L
same,LIPASE,[4],7.67 u/L
same,PHOSPHORUS,[4],11.27 mg/dL
same,POTASSIUM,[4],6.81 MEQ/L
same,SODIUM,[4],144.57 MEQ/L
same,TOTAL BILIRUBIN,[4],0.1 mg/dL
same,TOTAL PROTEIN,[4],5.87 G/DL
same,URIC ACID,[4],1.87 mg/dL
